In PMC10354055, “An optimized Nurr1 agonist provides disease-modifying effects in Parkinson’s disease models” (Nature Communications, 2023):
Where “and” joins values, the source holds several entries; their conditions need not be identical. Equal entries are not always repeated. Where two headings read alike, the source gives them in different places.

What was measured:
[1] = BBB permeability assay, plasma and brain LC-MS/MS after oral administration; type: in vivo, rat;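 for plasma: oral dosing solution 2 mg/mL in saline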
Procedure: Final dose of […] 4A7C-301 dissolved in saline was orally administrated to SD rats (male, 7-9 weeks, n = 3 per group). To measure the 4A7C-301 concentration in the brain, rats were fully exsanguinated to remove residual blood prior to brain collection. Brain and blood samples were collected at 0.25, 0.5, 1, 2, 4, 6, 8, and 24 h after administration. A robust LC-MS/MS method was developed with the lower limit of quantification (LLOQ) of 1 ng/mL and 0.5 ng/mL for the quantification of 4A7C-301 in plasma and brain, respectively. The accuracy of all accepted QC samples of 4A7C-301 at low, middle, and high concentration levels met the acceptance criteria. Isolated brains were homogenized in PBS as brain weight (g) to PBS volume (mL) ratio 1:3. The desired serial concentrations of working solutions were achieved by diluting stock solution of analyte with 50% acetonitrile in water solution. 5 µL of working solutions (5, 10, 20, 50, 100, 500, 1000, 5000 ng/mL) were added to 50 μl of male SD rat blank brain homogenate to achieve calibration standards of 0.5 ~ 500 ng/mL (0.5, 1, 2, 5, 10, 50, 100, 500 ng/mL) in a total volume of 55 μl. Four quality control samples at 1.5 ng/mL, 3 ng/mL, 50 ng/mL and 400 ng/mL for brain homogenate were prepared independently of those used for the calibration curves. These QC samples were prepared on the day of analysis in the same way as calibration standards. 55 μl of standards, 55 μl of QC samples and 55 μl of unknown samples (50 µL of brain homogenate with 5 µL of blank solution) were added to 200 μl of acetonitrile containing IS mixture for precipitating protein, respectively. Then the samples were vortexed for 30 seconds. After centrifugation at 4 °C, 4000 x g for 15 min, the supernatant was diluted 5 times with water. 25 µl of diluted supernatant was injected into the LC-MS/MS system (AB API 5500 + LC-MS/MS instruments (Serial No. EX224682008)) for quantitative analysis. To measure the 4A7C-301 concentration in the plasma, serum samples were obtained from the collected blood and analyzed by LC-MS/MS system as indicated above.

Nurr1-LBD = target: T1, Nurr1-LBD (Mus musculus, UniProt Q06219); assay: Luciferase reporter assay, Nurr1-LBD, MN9D cells; type: cell-based
T1 construct: transfected with pCMV-fNurr1, pGAL-Nurr1(LBD), pGAL-Nor1(LBD) or pGAL-Nur77(LBD) and reporter construct; expressed in transfected cells; host or cells: SK-N-BE(2)C (human neuroblastoma), N27-A (rat dopaminergic), MN9D (murine dopaminergic)
Description: Nurr1 transactivity was normalized to β-galactosidase activity.

[2] = system: AAV-αSyn-induced male mice; assay: Olfactory discrimination test, AAV-αSyn-induced PD model mice; type: in vivo, mouse
Description: Adeno-associated viruses (AAVs) expressing GFP only or αSyn (wild-type or A53T) were kindly provided by Dr. Yoon Seong Kim from the University of Central Florida. Recombinant AAV vectors were produced using modified pAAV-IRES-hrGFP (Agilent) to express wild-type and mutant human αSyn under control of the CMV promoter. Viral particles (AAV2) were produced at the University of Iowa Viral Vector Core according to standard operating procedures (https://medicine.uiowa.edu/vectorcore/). […] AAV vectors were delivered into the substantia nigra unilaterally by stereotaxic surgery.
The olfactory discrimination test was designed based on Prediger et al.. Briefly, mice were placed in a chamber (40 (w) × 20 (d) × 20 (h) cm) segmented with two identical compartments containing fresh sawdust (non-familiar odor) on one side and unchanged sawdust (familiar odor; maintained for 3 days before the test) on the other side. Mice could choose between one or another area by freely passing through an open door, for 5 min. Mice movements were monitored with EthoVision XT version 7.0 (Noldus) and time (s) and distance (cm) traveled in each compartment were recorded and analyzed.

[3] = time 00:15:00, individual replicates
[4] = time 0:30:00, individual replicates
[5] = time 1:00:00, individual replicates
[6] = time 2:00:00, individual replicates
[7] = time 4:00:00, individual replicates
[8] = time 6:00:00, individual replicates
[9] = time 8:00:00, individual replicates
[10] = time 24:00:00, individual replicates

T1 sequence (Q06219 360-595 limits assumed): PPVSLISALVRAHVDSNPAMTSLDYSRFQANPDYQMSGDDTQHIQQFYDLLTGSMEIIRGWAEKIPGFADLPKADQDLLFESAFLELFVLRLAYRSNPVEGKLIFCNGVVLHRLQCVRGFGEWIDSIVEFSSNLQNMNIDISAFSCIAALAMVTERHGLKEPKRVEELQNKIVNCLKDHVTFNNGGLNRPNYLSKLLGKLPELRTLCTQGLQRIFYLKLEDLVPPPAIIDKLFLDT

## CCN1CCN(c2cc(N3CCN(CC)CC3)nc(NCCNc3ccnc4cc(Cl)ccc34)n2)CC1 [4A7C-301, N^1-(4,6-bis(4-ethylpiperazin-1-yl)pyrimidin-2-yl)-N^2-(7-chloroquinolin-4-yl)ethane-1,2-diamine]
[1]; SD rats, oral, 20 mg/kg, plasma and brain homogenates
  brain permeability (in words): penetrated into the brain well
[1]; male, SD, rat, brain, oral, 2 mg/mL, time 00:15:00, individual replicates, read-out: Brain
  concentration at […]: 0 ng/g
[1]; male, SD, rat, brain, oral, 2 mg/mL, time 0:30:00, individual replicates, read-out: Brain
  concentration at 0.5 h: 0 ng/g
[1]; male, SD, rat, brain, oral, 2 mg/mL, time 8:00:00, individual replicates
  concentration at 8 h: 28.7 ng/g
[1]; male, SD, rat, plasma, oral, 2 mg/mL, time 00:15:00, individual replicates, read-out: Plasma
  concentration at […]: 0 ng/mL
[1]; male, SD, rat, plasma, oral, 2 mg/mL, time 0:30:00, individual replicates, read-out: Plasma
  concentration at 0.5 h: 0 ng/mL
[1]; [3]
  Brain: 0 ng/g
  Plasma: 0 ng/mL
[1]; [4]
  Brain: 0 ng/g
  Plasma: 0 ng/mL
[1]; [5]
  B/P ratio: 0.033 and 0.167 and 0.126
  Brain: 3.39 ng/g and 9.12 ng/g and 2.65 ng/g
  Plasma: 20.3 ng/mL and 72.3 ng/mL and 80.8 ng/mL
[1]; [6]
  B/P ratio: 0.395 and 0.077 and 0.505
  Brain: 7.24 ng/g and 13.5 ng/g and 6 ng/g
  Plasma: 94 ng/mL and 26.7 ng/mL and 15.2 ng/mL
[1]; [7]
  B/P ratio: 0.137 and 0.126 and 1.648
  Brain: 27.2 ng/g and 13.5 ng/g and 7.16 ng/g
  Plasma: 216 ng/mL and 8.18 ng/mL and 52.2 ng/mL
[1]; [8]
  B/P ratio: 0.074 and 0.166 and 2.055
  Brain: 19.9 ng/g and 24 ng/g and 4.36 ng/g
  Plasma: 120 ng/mL and 11.7 ng/mL and 58.6 ng/mL
[1]; [9]
  B/P ratio: 0.112 and 3.845 and 0.261
  Brain: 16.8 ng/g and 20.2 ng/g
  Plasma: 7.47 ng/mL and 64.3 ng/mL and 180 ng/mL
[1]; [10]
  B/P ratio: 10.245 and 0.957 and 6.289
  Brain: 61.6 ng/g and 20 ng/g and 36 ng/g
  Plasma: 64.4 ng/mL and 3.18 ng/mL and 3.51 ng/mL
Nurr1-LBD; Fig. S3a, 0.001 µM
  Luciferase activity (fold): 1.103 fold and 1.1109 fold and 1.11 fold
Nurr1-LBD; Fig. S3a, 0.01 µM
  Luciferase activity (fold): 2.094 fold and 2.1057 fold and 1.929 fold
Nurr1-LBD; Fig. S3a, 0.1 µM
  Luciferase activity (fold): 4.339 fold and 4.261 fold and 4.17 fold
Nurr1-LBD; Fig. S3a, 1 µM
  Luciferase activity (fold): 7.077 fold and 6.781 fold and 6.645 fold
Nurr1-LBD; Fig. S3a, 10 µM
  Luciferase activity (fold): 6.849 fold and 6.689 fold and 7.128 fold
Nurr1-LBD; Fig. S1d, conc. 1 µM, replicates
  Luciferase activity (fold): 6.4567 fold and 6.799 fold and 6.563 fold
Nurr1-LBD; Fig. S1d, conc. 10 µM, replicates
  Luciferase activity (fold): 6.943 fold and 6.5332 fold and 6.663 fold
Nurr1-LBD; Fig. S1d, conc. 10-1 µM, replicates
  Luciferase activity (fold): 3.61 fold and 3.7661 fold and 3.609 fold
Nurr1-LBD; Fig. S1d, conc. 10-2 µM, replicates
  Luciferase activity (fold): 1.993 fold and 2.235 fold and 2.074 fold
Nurr1-LBD; Fig. S1d, conc. 10-3 µM, replicates
  Luciferase activity (fold): 1.142 fold and 1.201 fold and 1.251 fold
Nurr1-LBD; MN9D cells, Supplementary Fig. 3a,b
  potency to activate Nurr1 relative to CQ: approximately 50 fold
[2]; αSynA53T-mice
  olfactory dysfunction (in words): significantly reversed
[2]; αSynWT-mice, 6 and 8 weeks after surgery
  olfactory dysfunction (in words): rescued olfactory dysfunction
